Assay results published in ChEMBL document CHEMBL5260842 (J Med Chem, 2019).

Tests used:
VCaP = test: Cytotoxicity against AR-positive human VCaP cells assessed as inhibition of cell growth incubated for 7 days in presence of AR agonist, R1881 in charcoal stripped medium by WST-8 assay; type: functional, cell-based; settings: 168 h
LNCaP = test: Cytotoxicity against AR-positive human LNCaP cells assessed as inhibition of cell growth incubated for 7 days in presence of AR agonist, R1881 in charcoal stripped medium by WST-8 assay; type: functional, cell-based; settings: 168 h
[1] = target: T1, von Hippel-Lindau disease tumor suppressor/Androgen receptor (Homo sapiens, UniProt P10275+P40337); test: Protac activity at VHL/AR in AR-positive human LNCaP cells assessed as induction of androgen receptor degradation at 0.1 uM incubated for 6 hrs by Western blot analysis (reference value: 0%); type: cell-based
T1 sequence (P10275 whole entry, looked up): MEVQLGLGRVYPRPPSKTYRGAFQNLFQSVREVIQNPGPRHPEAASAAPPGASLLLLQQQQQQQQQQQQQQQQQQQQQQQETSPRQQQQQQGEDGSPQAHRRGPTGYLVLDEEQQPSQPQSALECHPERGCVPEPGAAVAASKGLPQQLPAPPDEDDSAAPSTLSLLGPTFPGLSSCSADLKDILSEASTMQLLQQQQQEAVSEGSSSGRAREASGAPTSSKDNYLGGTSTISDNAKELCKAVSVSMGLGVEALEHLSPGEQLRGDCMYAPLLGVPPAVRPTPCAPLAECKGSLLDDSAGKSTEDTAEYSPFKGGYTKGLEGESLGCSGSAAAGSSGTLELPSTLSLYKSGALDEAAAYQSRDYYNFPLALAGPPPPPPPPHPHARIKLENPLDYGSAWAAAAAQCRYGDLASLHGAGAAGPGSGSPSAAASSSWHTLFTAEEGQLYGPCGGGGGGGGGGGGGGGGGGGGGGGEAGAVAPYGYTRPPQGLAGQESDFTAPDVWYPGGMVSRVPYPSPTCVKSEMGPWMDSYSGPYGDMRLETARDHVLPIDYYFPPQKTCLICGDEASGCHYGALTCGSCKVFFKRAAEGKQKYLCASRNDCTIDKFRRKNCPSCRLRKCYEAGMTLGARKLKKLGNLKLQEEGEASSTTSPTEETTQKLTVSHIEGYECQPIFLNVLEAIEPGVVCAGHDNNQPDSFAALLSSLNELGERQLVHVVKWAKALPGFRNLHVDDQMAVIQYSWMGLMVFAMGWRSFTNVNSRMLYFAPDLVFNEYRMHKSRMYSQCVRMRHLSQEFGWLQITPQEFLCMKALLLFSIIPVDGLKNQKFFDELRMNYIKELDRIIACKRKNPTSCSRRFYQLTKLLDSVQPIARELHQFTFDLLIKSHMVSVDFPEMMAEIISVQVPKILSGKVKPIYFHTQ
T1 sequence (P40337 whole entry, looked up): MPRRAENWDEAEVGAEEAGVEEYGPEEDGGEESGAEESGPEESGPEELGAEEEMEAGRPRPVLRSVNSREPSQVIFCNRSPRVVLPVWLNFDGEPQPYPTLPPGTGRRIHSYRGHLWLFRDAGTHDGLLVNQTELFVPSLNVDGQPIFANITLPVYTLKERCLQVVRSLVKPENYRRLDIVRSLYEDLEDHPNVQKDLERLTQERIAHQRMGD

CWR22R = test: Cytotoxicity against AR-positive human 22Rv1 cells assessed as inhibition of cell growth incubated for 7 days in regular culture medium by WST-8 assay; type: functional, cell-based; settings: 22Rv1, 168 h
[2] = target: T1, von Hippel-Lindau disease tumor suppressor/Androgen receptor; test: Protac activity at VHL/AR in AR-positive human LNCaP cells assessed as induction of androgen receptor degradation at 0.01 uM incubated for 6 hrs by Western blot analysis (reference value: 0%); type: cell-based

Row | SMILES | Activity [1] [%] | Activity [2] [%] | further results
1 | CNC(=O)c1ccc(N2C(=S)N(c3ccc(C#N)c(C(F)(F)F)c3)C(=O)C2(C)C)cc1F [ENZALUTAMIDE] | – | – | IC50 (VCaP): 87.4 nM; IC50 (LNCaP): 25 nM
2 | Cc1cc([C@H](C(=O)N2C[C@H](O)C[C@H]2C(=O)N[C@@H](CC(=O)N2CCC(N3CCC(C#Cc4ccc(S(=O)(=O)CC(C)(O)C(=O)Nc5ccc(C#N)c(C(F)(F)F)c5)cc4)CC3)CC2)c2ccc(-c3scnc3C)cc2)C(C)C)on1 (stereo partly drawn) | 18 | – | –
3 | CC1(C)[C@H](NC(=O)c2cnn(CCO)c2)C(C)(C)[C@H]1Oc1ccc(C#N)c(Cl)c1 | – | – | IC50 (VCaP): 148 nM; IC50 (LNCaP): 48 nM; IC50 (CWR22R): > 10000 nM
4 | Cc1ncsc1-c1ccc(CNC(=O)[C@@H]2C[C@@H](O)CN2C(=O)[C@@H](NC(=O)CCCCCCCCCNC(=O)c2ccc(N3C(=S)N(c4ccc(C#N)c(C(F)(F)F)c4)C(=O)C3(C)C)cc2F)C(C)(C)C)cc1 | 48 | 10 | –
5 | Cc1cc([C@H](C(=O)N2C[C@H](O)C[C@H]2C(=O)N[C@@H](CC(=O)N2CCC(N3CCC(C#Cc4ccc(Cc5c(C)nn(-c6ccc(C#N)c(Cl)c6)c5C)cc4)CC3)CC2)c2ccc(-c3scnc3C)cc2)C(C)C)on1 | 65 | – | –
6 | CC(=O)N[C@H](C(=O)N1C[C@H](O)C[C@H]1C(=O)N[C@@H](CC(=O)N1CCC(N2CCC(C#Cc3ccc(C(=O)N[C@H]4C(C)(C)[C@H](Oc5ccc(C#N)c(Cl)c5)C4(C)C)cc3)CC2)CC1)c1ccc(-c2scnc2C)cc1)C(C)(C)C | 77 | 39 | –
7 | Cc1ncsc1-c1ccc(CNC(=O)[C@@H]2C[C@@H](O)CN2C(=O)[C@@H](NC(=O)CCCCCNC(=O)c2ccc(N3C(=S)N(c4ccc(C#N)c(C(F)(F)F)c4)C(=O)C3(C)C)cc2F)C(C)(C)C)cc1 | 11 | – | –
8 | Cc1cc([C@H](C(=O)N2C[C@H](O)C[C@H]2C(=O)N[C@@H](CC(=O)N2CCC(N3CCC(C#Cc4ccc(N5C(=S)N(c6cnc(C#N)c(C(F)(F)F)c6)C(=O)C56CCC6)cc4)CC3)CC2)c2ccc(-c3scnc3C)cc2)C(C)C)on1 | 80 | 38 | –
9 | Cc1cc([C@H](C(=O)N2C[C@H](O)C[C@H]2C(=O)N[C@@H](CC(=O)NCCCCCCCCCNC(=O)c2ccc(N3C(=S)N(c4ccc(C#N)c(C(F)(F)F)c4)C(=O)C3(C)C)cc2F)c2ccc(-c3sncc3C)cc2)C(C)C)on1 | 50 | 11 | –
10 | Cc1cc([C@H](C(=O)N2C[C@H](O)C[C@H]2C(=O)N[C@@H](CC(=O)N2CCC(N3CCC(C#Cc4ccc(C(=O)N[C@H]5C(C)(C)[C@H](Oc6ccc(C#N)c(Cl)c6)C5(C)C)cc4)CC3)CC2)c2ccc(-c3scnc3C)cc2)C(C)C)on1 | 98 | 76 | –
11 | Cc1ncsc1-c1ccc(CNC(=O)[C@@H]2C[C@@H](O)CN2C(=O)[C@@H](NC(=O)CCOCCOCCNC(=O)c2ccc(N3C(=S)N(c4ccc(C#N)c(C(F)(F)F)c4)C(=O)C3(C)C)cc2F)C(C)(C)C)cc1 | 32 | – | –
12 | Cc1ncsc1-c1ccc(CNC(=O)[C@@H]2C[C@@H](O)CN2C(=O)[C@@H](NC(=O)CCCCCCCCCCNC(=O)c2ccc(N3C(=S)N(c4ccc(C#N)c(C(F)(F)F)c4)C(=O)C3(C)C)cc2F)C(C)(C)C)cc1 | 48 | 11 | –
13 | Cc1ncsc1-c1ccc(CNC(=O)[C@@H]2C[C@@H](O)CN2C(=O)[C@@H](NC(=O)CCCCCCNC(=O)c2ccc(N3C(=S)N(c4ccc(C#N)c(C(F)(F)F)c4)C(=O)C3(C)C)cc2F)C(C)(C)C)cc1 | 54 | – | –
14 | Cc1ncsc1-c1ccc([C@H](CC(=O)N2CCC(N3CCC(C#Cc4ccc(C(=O)N[C@H]5C(C)(C)[C@H](Oc6ccc(C#N)c(Cl)c6)C5(C)C)cc4)CC3)CC2)NC(=O)[C@@H]2C[C@@H](O)CN2C(=O)[C@H](NC(=O)C2(F)CC2)C(C)(C)C)cc1 | < 5 | – | –
15 | Cc1ncsc1-c1ccc([C@@H](CC(=O)N2CCC(N3CCC(C#Cc4ccc(C(=O)N[C@H]5C(C)(C)[C@H](Oc6ccc(C#N)c(Cl)c6)C5(C)C)cc4)CC3)CC2)NC(=O)[C@@H]2C[C@@H](O)CN2C(=O)[C@@H](NC(=O)C2(F)CC2)C(C)(C)C)cc1 | < 5 | – | –
16 | Cc1ncsc1-c1ccc(CNC(=O)[C@@H]2C[C@@H](O)CN2C(=O)[C@@H](NC(=O)CCCCCCCNC(=O)c2ccc(N3C(=S)N(c4ccc(C#N)c(C(F)(F)F)c4)C(=O)C3(C)C)cc2F)C(C)(C)C)cc1 | 29 | 8 | –
17 | Cc1ncsc1-c1ccc(CNC(=O)[C@@H]2C[C@@H](O)CN2C(=O)[C@@H](NC(=O)CCCCCCCCNC(=O)c2ccc(N3C(=S)N(c4ccc(C#N)c(C(F)(F)F)c4)C(=O)C3(C)C)cc2F)C(C)(C)C)cc1 | 66 | 15 | –
18 | Cc1ncsc1-c1ccc([C@H](CC(=O)N2CCC(N3CCC(C#Cc4ccc(C(=O)N[C@H]5C(C)(C)[C@H](Oc6ccc(C#N)c(Cl)c6)C5(C)C)cc4)CC3)CC2)NC(=O)[C@@H]2C[C@@H](O)CN2C(=O)[C@@H](NC(=O)C2(C#N)CC2)C(C)(C)C)cc1 | 99 | 76 | –
19 | Cc1cc([C@H](C(=O)N2C[C@H](O)C[C@H]2C(=O)N[C@@H](CC(=O)NCCCCCCCCCNC(=O)c2ccc(C(=O)N[C@H]3C(C)(C)[C@H](Oc4ccc(C#N)c(Cl)c4)C3(C)C)cc2)c2ccc(-c3scnc3C)cc2)C(C)C)on1 | 91 | 43 | –
20 | Cc1ncsc1-c1ccc(CNC(=O)[C@@H]2C[C@@H](O)CN2C(=O)[C@@H](NC(=O)CCCCCCCCCCCNC(=O)c2ccc(N3C(=S)N(c4ccc(C#N)c(C(F)(F)F)c4)C(=O)C3(C)C)cc2F)C(C)(C)C)cc1 | 30 | – | –

Now from value to compound, other results behind:

Row | Activity [1] [%] | Activity [2] [%] | SMILES | further results
21 | 0 | – | Cc1ncsc1-c1ccc([C@H](C)NC(=O)[C@@H]2C[C@@H](O)CN2C(=O)[C@@H](NC(=O)N2CCN(c3ccc(C#Cc4ccc(N5C(=S)N(c6ccc(C#N)c(C(F)(F)F)c6)C(=O)C5(C)C)cc4)cn3)CC2)C(C)(C)C)cc1 | –
22 | 75 | 27 | Cc1cc([C@H](C(=O)N2C[C@H](O)C[C@H]2C(=O)N[C@@H](CC(=O)NCCCN2CCN(c3ccc(C#Cc4ccc(N5C(=S)N(c6ccc(C#N)c(C(F)(F)F)c6)C(=O)C5(C)C)cc4)cn3)CC2)c2ccc(-c3sncc3C)cc2)C(C)C)on1 | –
23 | 50 | – | Cc1ncsc1-c1ccc(CNC(=O)[C@@H]2C[C@@H](O)CN2C(=O)[C@@H](NC(=O)CCCN2CCN(c3ccc(C#Cc4ccc(N5C(=S)N(c6ccc(C#N)c(C(F)(F)F)c6)C(=O)C5(C)C)cc4)cn3)CC2)C(C)(C)C)cc1 | –
24 | 81 | 20 | Cc1cc([C@H](C(=O)N2C[C@H](O)C[C@H]2C(=O)N[C@@H](CC(=O)N2CCC(N3CCC(C#Cc4ccc(N5C(=S)N(c6ccc(C#N)c(C(F)(F)F)c6)C(=O)C5(C)C)cc4)CC3)CC2)c2ccc(-c3scnc3C)cc2)C(C)C)on1 | –
25 | 48 | 28 | Cc1ncsc1-c1ccc([C@H](C)NC(=O)[C@@H]2C[C@@H](O)CN2C(=O)[C@@H](NC(=O)CCCCN2CCN(c3ccc(C#Cc4ccc(N5C(=S)N(c6ccc(C#N)c(C(F)(F)F)c6)C(=O)C5(C)C)cc4)cn3)CC2)C(C)(C)C)cc1 | –
26 | 63 | 30 | Cc1ncsc1-c1ccc(CNC(=O)[C@@H]2C[C@@H](O)CN2C(=O)[C@@H](NC(=O)CCCCCCc2ccc(C#Cc3ccc(N4C(=S)N(c5ccc(C#N)c(C(F)(F)F)c5)C(=O)C4(C)C)cc3)cn2)C(C)(C)C)cc1 | –
27 | 61 | 37 | Cc1ncsc1-c1ccc([C@H](C)NC(=O)[C@@H]2C[C@@H](O)CN2C(=O)[C@@H](NC(=O)CCCN2CCN(c3ccc(C#Cc4ccc(N5C(=S)N(c6ccc(C#N)c(C(F)(F)F)c6)C(=O)C5(C)C)cc4)cn3)CC2)C(C)(C)C)cc1 | –
28 | 16 | – | Cc1ncsc1-c1ccc(CNC(=O)[C@@H]2C[C@@H](O)CN2C(=O)[C@@H](NC(=O)CCCCNC(=O)c2ccc(N3C(=S)N(c4ccc(C#N)c(C(F)(F)F)c4)C(=O)C3(C)C)cc2F)C(C)(C)C)cc1 | –
29 | 51 | 34 | Cc1ncsc1-c1ccc([C@H](C)NC(=O)[C@@H]2C[C@@H](O)CN2C(=O)[C@@H](NC(=O)CCN2CCN(c3ccc(C#Cc4ccc(N5C(=S)N(c6ccc(C#N)c(C(F)(F)F)c6)C(=O)C5(C)C)cc4)cn3)CC2)C(C)(C)C)cc1 | –
30 | 15 | – | Cc1ncsc1-c1ccc(CNC(=O)[C@@H]2C[C@@H](O)CN2C(=O)[C@@H](NC(=O)CCCNC(=O)c2ccc(N3C(=S)N(c4ccc(C#N)c(C(F)(F)F)c4)C(=O)C3(C)C)cc2F)C(C)(C)C)cc1 | –
31 | 26 | – | Cc1ncsc1-c1ccc(CNC(=O)[C@@H]2C[C@@H](O)CN2C(=O)[C@@H](NC(=O)CCNC(=O)c2ccc(N3C(=S)N(c4ccc(C#N)c(C(F)(F)F)c4)C(=O)C3(C)C)cc2F)C(C)(C)C)cc1 | –
32 | 3 | – | Cc1ncsc1-c1ccc([C@H](C)NC(=O)[C@@H]2C[C@@H](O)CN2C(=O)[C@@H](NC(=O)CN2CCN(c3ccc(C#Cc4ccc(N5C(=S)N(c6ccc(C#N)c(C(F)(F)F)c6)C(=O)C5(C)C)cc4)cn3)CC2)C(C)(C)C)cc1 | –
33 | 72 | 22 | Cc1cc([C@H](C(=O)N2C[C@H](O)C[C@H]2C(=O)N[C@@H](CC(=O)N2CCN(c3ccc(C#Cc4ccc(N5C(=S)N(c6ccc(C#N)c(C(F)(F)F)c6)C(=O)C5(C)C)cc4)cn3)CC2)c2ccc(-c3scnc3C)cc2)C(C)C)on1 | –
